Data: patent EP4019580A1, “REDUCTION OF FLUORINATED ACID IN FLUOROPOLYMERS” (3M Innovative Properties Company, priority 2020, dated 2022)

Key:
[1] = Cryogenic grinding of perfluorinated elastomers (Spex mill), MeOH extraction and LC/MS determination of perfluorinated carboxylic acids; format: physicochemical; conditions: 10 wt.-% BHT versus no radical scavenger
Source text: (§1) The general procedures described in "3M Standard Method for PFAS in Articles of Commerce, Edition 1, 02 June 2020", including the test and analytical equipment, was followed. The disclosure of this document is incorporated herein by reference in its entirety. In particular, reference is made with regard to the experimental and analytical setup and methods used in the present disclosure to the chapter "Part 3: Instrumental Analysis", 3.1.1 "Analytical Equipment and Materials" as well as 3.1.2 "HPLC Conditions (exemplary)".
(§2) The submitted samples were dissolved in methanol prior to analysis. Standard solutions were prepared from an aqueous solution of Adona that was determined to have a concentration of 28.36% by NMR.
In this study the inhibition effect of radical scavengers on the generation of perfluorinated carboxylic acids during cryogenic grinding of PFE and PFE compounds was investigated. As example 1, PTFE 191 plus 10 wt.-% BHT as radical scavenger was used. The amount of BHT was added as a powder to the gum in the milling container. Comparative Example 1 was PTFE 191 without BHT or any other radical scavengers. […]
The perfluorinated carboxylic acids were determined by extraction of the grinded material with MeOH and subsequent LC/MS measurements. […]

[2] = Cryogenic grinding of crystalline perfluorinated polymers on the Spex mill, MeOH extraction and LC/MS determination of perfluorinated carboxylic acids; format: physicochemical; conditions: 10 wt.-% BHT versus no radical scavenger
Source text: as §1, §2
In this study the inhibition effect of radical scavengers on the generation of perfluorinated carboxylic acids during cryogenic grinding of crystalline fluoropolymers was investigated. The polymers were grinded on a Spex or Retsch mill under the addition of BHT (2,6-Di-tert-butyl-4-methylphenol; CAS 128-37-0). The BHT was added as a powder to the polymer in the milling tube. Table 3. Milling conditions.
Perfluorinated carboxylic acids were extracted with MeOH and determined by LC/MS measurements as published in the 3M Standard test method for the determination of PFOA in articles of commerce. […]

Cc1cc(C(C)(C)C)c(O)c(C(C)(C)C)c1 [BHT, 2,6-Di-tert-butyl-4-methylphenol]
lowers the PFOA formation [1]: within three orders of magnitude | formation of C3-C7 Perfluorocarboxylic acids is reduced by a factor of [2]: 18
